Results on three compounds are retold here after US20110071115A1, “PHARMACEUTICALLY USEFUL HETEROCYCLE-SUBSTITUTED LACTAMS” (CYLENE PHARMACEUTICALS, INC., priority 2009, published 2011).

The structures appear in SMILES notation. Like-named read-outs stand apart in the source and are kept apart here.

One assay concerns the target T1, recombinant human CK2 (Homo sapiens, UniProt P68400).
T1 construct: purchased Upstate
The experiment in a line: CK2 assay (cell-free, 33P-ATP filter plate). It is filed as biochemical. How it is done:
Modulatory activity of compounds described herein was assessed in vitro in cell-free CK2 assays by the following method.
Test compounds in aqueous solution were added at a volume of 10 microliters, to a reaction mixture comprising 10 microliters Assay Dilution Buffer (ADB; 20 mM MOPS, pH 7.2, 25 mM beta-glycerolphosphate, 5 mM EGTA, 1 mM sodium orthovanadate and 1 mM dithiothreitol), 10 microliters of substrate peptide (RRRDDDSDDD, dissolved in ADB at a concentration of 1 mM), 10 microliters of recombinant human CK2 (25 ng dissolved in ADB; Upstate). Reactions were initiated by the addition of 10 microliters of ATP Solution (90% 75 mM MgCl2, 75 micromolar ATP dissolved in ADB; 10% [γ-^33P]ATP (stock 1 mCi/100 μl; 3000 Ci/mmol (Perkin Elmer) and maintained for 10 minutes at 30° C. The reactions were quenched with 100 microliters of 0.75% phosphoric acid, then transferred to and filtered through a phosphocellulose filter plate (Millipore). After washing each well 5 times with 0.75% phosphoric acid, the plate was dried under vacuum for 5 min and, following the addition of 15 ul of scintilation fluid to each well, the residual radioactivity was measured using a Wallac luminescence counter.

The next assay deals with MDAMB453. Nature of the assay: Alamar Blue (AB) cell proliferation assay, MDAMB453. The assay is classed as cell-based. The protocol: (§1) A representative cell-proliferation assay protocol using Alamar Blue dye (stored at 4° C., use 20 ul per well) is described hereafter.
(§2) c. Plate 4,000-5,000 cells per well in 100 μl of medium and seed into a 96-well plate according to the following plate layout. Add cell culture medium only to wells B10 to B12. Wells B1 to B9 have cells but no compound added.
(§3) d. Add 100 μl of 2× drug dilution to each well in a concentration shown in the plate layout above. At the same time, add 100 μl of media into the control wells (wells B10 to B12). Total volume is 200 μl/well.
(§4) e. Incubate four (4) days at 37° C., 5% CO2 in a humidified incubator.
(§5) f. Add 20 μl Alamar Blue reagent to each well.
(§6) g. Incubate for four (4) hours at 37° C., 5% CO2 in a humidified incubator.
(§7) h. Record fluorescence at an excitation wavelength of 544 nm and emission wavelength of 590 nm using a microplate reader.
(§8) In the assays, cells are cultured with a test compound for approximately four days, the dye is then added to the cells and fluorescence of […] dye is detected after approximately four hours. Different types of cells can be utilized in the assays (e.g., HCT-116 human colorectal carcinoma cells, PC-3 human prostatic cancer cells, MDA-MB231 human breast cancer cells, K-562 human chronic myelogenous leukemia (CML) cells, MiaPaca human pancreatic carcinoma cells, MV-4 human acute myeloid leukemia cells, and BxPC3 human pancreatic adenocarcinoma cells).

In a further assay the target is recombinant human Pim-2 (Homo sapiens, UniProt Q9P1W9). Nature of the assay: PIM-2 assay (33P-ATP filter plate). The assay is classed as biochemical. The settings on record: 2.5 uM compound. The protocol: Test compounds dissolved and diluted in DMSO (2 μl) were added to a reaction mixture comprising 10 μl of 5× Reaction Buffer (40 mM MOPS pH 7.0, 5 mM EDTA), 10 of recombinant human Pim-2 solution (4 ng Pim-2 dissolved in dilution buffer (20 mM MOPS pH 7.0; EDTA 1 mM; 5% Glycerol; 0.01% Brij 35; […]; […] 2-mercaptoethanol; 1 mg/ml BSA)) and 8 ul of water. Reactions were initiated by the addition of 10 ul of ATP Solution (49% (15 mM MgCl2; 75 uM ATP) 1% ([γ-33P]ATP: Stock 1 mCi/100 μl; 3000 Ci/mmol (Perkin Elmer)) and 10 ul of substrate peptide solution (RSRSSYPAGT, dissolved in water at a concentration of 1 mM), Reactions were maintained for […] at 30° C. The reactions were quenched with 100 ul of 0.75% phosphoric acid, then transferred to and filtered through a Phosphocellulose filter plate (Millipore, MSPH-N6B-50). After washing each well 4 times with 0.75% phosphoric acid, scintillation fluid (20 μL) was added to each well and the residual radioactivity was measured using a Wallac luminescence counter.

Assay [1] has as its system BxPC3 human pancreatic adenocarcinoma cells. Nature of the assay: Alamar Blue (AB) cell proliferation assay, BxPC3. The assay is classed as cell-based. The protocol: as §1, §2, §3, §4, §5, §6, §7, §8
A general note: Alamar Blue is a resazurin reagent that responds to reducing activity.

Chain of recombinant human Pim-2 (Q9P1W9 whole entry): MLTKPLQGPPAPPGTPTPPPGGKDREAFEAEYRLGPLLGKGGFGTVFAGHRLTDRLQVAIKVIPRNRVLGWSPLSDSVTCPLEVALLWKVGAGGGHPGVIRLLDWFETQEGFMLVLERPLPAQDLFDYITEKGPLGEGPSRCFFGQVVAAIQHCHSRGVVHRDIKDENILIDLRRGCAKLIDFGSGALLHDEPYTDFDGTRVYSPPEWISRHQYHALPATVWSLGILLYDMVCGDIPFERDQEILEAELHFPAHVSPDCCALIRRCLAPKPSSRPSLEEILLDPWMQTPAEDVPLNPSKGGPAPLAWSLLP
T1 sequence (P68400 whole entry): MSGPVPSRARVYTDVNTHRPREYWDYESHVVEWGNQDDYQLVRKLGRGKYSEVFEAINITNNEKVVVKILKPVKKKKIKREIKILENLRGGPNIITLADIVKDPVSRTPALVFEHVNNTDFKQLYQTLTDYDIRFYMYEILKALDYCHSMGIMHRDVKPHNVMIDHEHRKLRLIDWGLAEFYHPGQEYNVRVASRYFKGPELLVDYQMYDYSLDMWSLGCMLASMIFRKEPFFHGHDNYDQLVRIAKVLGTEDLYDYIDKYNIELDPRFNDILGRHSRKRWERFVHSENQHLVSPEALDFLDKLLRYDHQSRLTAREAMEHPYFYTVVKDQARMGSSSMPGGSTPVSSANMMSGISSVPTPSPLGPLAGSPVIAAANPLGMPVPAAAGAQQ
T1 sequence (P67870 whole entry partner): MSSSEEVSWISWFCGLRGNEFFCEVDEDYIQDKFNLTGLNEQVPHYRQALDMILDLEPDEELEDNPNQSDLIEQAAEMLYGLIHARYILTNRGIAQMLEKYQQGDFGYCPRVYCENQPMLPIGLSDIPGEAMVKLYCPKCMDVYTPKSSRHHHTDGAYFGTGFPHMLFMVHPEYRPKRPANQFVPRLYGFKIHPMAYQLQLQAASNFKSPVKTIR

Broadly, the IC50 is the concentration that inhibits the measured activity by half. As to `C[C@H](Nc1cc(NC2CC2)n2ncc(/C=C3\CC(=O)NC3=O)c2n1)c1ccccc1` [Example A12], the IC50 at recombinant human CK2 was below 1 µM; with MDAMB453 (Homo sapiens, MDA-MB-453, MDAMB453 cells) it was 6.09 µM; in assay [1] (Homo sapiens, BXPC-3) it was 11.3 µM. For the same compound, at recombinant human Pim-2 (read-out: PIM2: % inh 2.5 uM), the inhibition at 2.5 µM worked out at 6.72%.

Consider `O=C(O)CCCC(=O)OCN1C(=O)C/C(=C\c2cnn3c(NC4CC4)cc(Nc4cc(Cl)ccc4F)nc23)C1=O` [Example P2], for which the results for the IC50 (on recombinant human CK2; with MDAMB453 (MDAMB453 cells); in assay [1]) were below 0.1 µM, above 30 µM and above 30 µM, respectively. Further, at recombinant human Pim-2, the “PIM2: % inh 2.5 uM” value is given as 73.771%.

Consider `CC(N)C(=O)OCN1C(=O)C/C(=C\c2cnn3c(NC4CC4)cc(Nc4cc(Cl)ccc4F)nc23)C1=O` (stereo not drawn) [Example P7, (E)-(3-((5-(5-chloro-2-fluorophenylamino)-7-(cyclopropylamino)pyrazolo[1,5-a]pyrimidin-3-yl)methylene)-2,5-dioxopyrrolidin-1-yl)methy 2-aminopropanoate], for which the IC50 on recombinant human CK2 was below 1 µM; in the assay with MDAMB453 (MDAMB453 cells), 10.5 µM; in assay [1] it was 12.4 µM. For the same compound, the “PIM2: % inh 2.5 uM” value at recombinant human Pim-2 is listed as 49.047%.
